Test results taken from patent publication US10385003B2, “Ophthalmic formulation” (priority 2011, dated 2019).
Entries after “also recorded” stand apart in the source; their conditions may differ. Read-outs that look alike come from different tables or passages of the source. Values belong to the molecule of their own block, whether it stands above or below them.

Columns and labels:
[1] = Π-A and pressure/time measurements of meibomian lipid films mixed with compounds of formula (I) (Example 5, FIG. 2); type: physicochemical, human
Procedure: (§1) The physico-chemical properties of certain wax esters, meibomian lipids, and compounds of formula (I) alone or mixed with human meibum were characterized on a Langmuir-Blodgett minitrough by means of surface pressure-area (Π-A) measurements.
(§2) A buffer (NaCl: 6.63 g/L, KCl: 1.72 g/L, NaHCO3: 1.38 g/L, CaCl2.2H2O: 0.15 g/L, NaH2PO4.H2O: 0.10 g/L and MOPS: 4.18 g/L dissolved in MilliQ water) was added to a double barrier minitrough (Nima Technology Ltd, UK; Working surface area 15 cm^2−80 cm^2). Purified preparations of wax esters in chloroform (1 mg/mL), meibomian lipids in chloroform (1 mg/mL), and compounds of formula (I) in chloroform (ranging from 1.4 μmol to 0.1 μmol) alone or mixed with human meibum at different ratios, were spread on the surface (air-buffer interface) of the buffer subphase. Dynamic Π-A profiles of films at the air-buffer interface of the Langmuir trough were collected using software supplied by NIMA Technology. Surface pressure was monitored using a paper plate connected to a Wilhelmy balance. Compression and expansion cycles were conducted over an area (A) of 79 cm^2−16 cm^2 at a barrier rate of 15 cm^2/min and at a temperature of 20° C. and 34° C.
Adding a small amount of a compound of formula (I) causes fast stabilisation of the film (indicated on the pressure/time curve with the mixture having little change between isocycles) and the maximum surface pressures are much higher.

[2] = Π-A measurements of meibomian lipids from a patient with dry eye disease mixed with a compound of formula (I) (Example 5, FIG. 3); type: physicochemical, human; conditions: dry eye patient meibomian lipids with 3 μL compound
Procedure: as §2

[3] = Surface pressure-area (Π-A) measurements of pure lipid films on a Langmuir-Blodgett minitrough (Example 5, FIG. 1); type: physicochemical; conditions: pure film at air-buffer interface, 20° C. and 34° C.
Procedure: as §1, §2
This is indicated by the take-off moving to the left of the x-axis (indicating collapse), whereas the take-off for the compounds of formula (I) remains constant.

[4] = Π-A isocycles of equimolar pure lipid films on artificial tear buffer, Langmuir trough (Example 6, FIG. 4); type: physicochemical; conditions: for surface activity of pure film: 7.5 nmol film; for surface activity of pure film / change of Π-A profile / take-off through repeated isocycles / change of maximum surface pressure (Πmax) with increasing isocycles: 35° C.; for change of Π-A profile / take-off through repeated isocycles / change of maximum surface pressure (Πmax) with increasing isocycles: 7.5 nmol pure film; for surface area per molecule on take-off: pure film, estimated
Procedure: (§3) Freshly synthesised (O-oleoyl)-ω-hydroxypalmitic acid (an example of a compound of formula (I)) was spread either alone or mixed with human meibum on a Langmuir trough on an artificial tear buffer. Pressure-area isocycle profiles were recorded and compared with those of palmityl oleate and oleic acid, alone or mixed with meibum. These measurements were accompanied by fluorescence microscopy of meibum mixed films during pressure-area isocycles.
The surface characteristics of (O-oleoyl)-ω-hydroxypalmitic acid were compared with palmityl oleate (a structurally similar wax ester) and oleic acid (which is equivalent to the fatty acid (amphiphilic) component of (O-oleoyl)-ω-hydroxypalmitic acid).
Films were formed by spreading 7.5 nmol of the lipids dissolved in chloroform onto the cleaned surface (air-buffer interface) of an artificial tear buffer (NaCl: 6.63 g/L, KCl: 1.72 g/L, NaHCO3: 1.38 g/L, CaCl2.2H2O: 0.15 g/L, NaH2PO4×H2O: 0.10 g/L and MOPS: 4.18 g/L dissolved in ion exchange ultrapure water) in a double barrier 80 mL temperature-controlled (35° C.) Langmuir trough (Nima Technology Ltd, UK). After 5 isocycles were obtained, the temperature was lowered to 20° C. A Whilhelmy balance (Whatman No. 1 filter paper) was used to record surface pressure during isocycles (79 cm^2-16 cm^2 at 10 cm^2/min).

[5] = Π-A isocycles of human meibum films mixed with model lipids (Example 6, FIG. 5); type: physicochemical; conditions: for change of Πmax in subsequent isocycles: meibum 20 μg mixed with lipid, 20° C.; for Πmax in the first isocycle versus meibomian lipid films alone: meibum 20 μg mixed with −10 mol % lipid, spread at 20° C.
Procedure: as §3
Collection of meibomian lipids was in accordance with the Tenets of Helsinki. Human meibomian lipids were gently squeezed out of the meibomian glands of a single subject's lower eyelids by applying pressure to the eyelids using sterile cotton swabs on either side of the lid. Multiple collections were carried out and pooled to provide consistency in the experiments. The subject was devoid of any external signs or symptoms of ocular pathology including dry eye disease. The expressed lipids were harvested using a sterile stainless steel spatula and dissolved in chloroform. The meibomian lipids were dried through vacuum concentration and centrifugation, and then reconstituted in chloroform spiked with 0.5% (w/w) of the fluorophore, 1-palmitoyl-2-[12-[(7-nitro-2-1,3-benzoxadiazol-4-yl)amino]dodecanoyl]-sn-glycero-3-phosphatidylcholine] (NBD-DPPC) (Avanti Polar Lipids, Auspep Pty. Ltd (Tullamarine, Australia)) and stored at −20° C. until used.
The results were compared with mixtures with meibomian lipids. Human meibum (20 μg) was mixed with −10 mol % (O-oleoyl)-ω-hydroxypalmitic acid (2 μg) or with palmityl oleate (1.9 μg) or oleic acid (1.1 μg). These mixtures were spread at 20° C. and 5 isocycles carried out. The film was then heated to 35° C. for another 5 isocycles. The Π-A curves were compared with those for pure meibomian lipid films. In some cases, meibomian lipids doped with 0.5% (w/w) NBD-DPPC were used in order to view the films microscopically.
In general, meibomian films were very tolerant to the changes in their composition, indicated by the fact that the shapes of the different Π-A curves of mixed films were similar to those obtained from films of pure meibomian lipids (FIG. 5). […] Meibum containing fluorophore was spread on artificial tear buffer alone or pre-mixed with each of (O-oleoyl)-ω-hydroxypalmitic acid, palmityl oleate, or oleic acid were spread at 20° C. on the trough. After five isocycles, the trough was heated to 35° C. and five more isocycles were carried out. Then the trough was cooled back to 20° C. and again five more isocycles were run.

[6] = Fluorescence microscopy of meibum mixed films during pressure-area isocycles (Example 6, FIG. 6); type: physicochemical, human; conditions: NBD-DPPC doped meibum, 20° C.
Procedure: as §3
Collection of meibomian lipids was in accordance with the Tenets of Helsinki. Human meibomian lipids were gently squeezed out of the meibomian glands of a single subject's lower eyelids by applying pressure to the eyelids using sterile cotton swabs on either side of the lid. Multiple collections were carried out and pooled to provide consistency in the experiments. The subject was devoid of any external signs or symptoms of ocular pathology including dry eye disease. […]
Micrographs comparing the appearance of pure meibomian lipid films (Row A) with meibomian lipids mixed with the (O-oleoyl)-ω-hydroxypalmitic acid (Row B), palmityl oleate (Row C) or oleic acid (Row D) at 20° C. […] Although not quantitatively verified, the darker patches appeared to be more prevalent in the mixed films of palmityl oleate and oleic acid than for pure meibomian lipid films.

[7] = meibomian lipids (20 μL) mixed with 3-5 μL compound, FIG. 2

SMILES: CCCCCCCC/C=C\CCCCCCCC(=O)OCCCCCCCCCC(=O)O [(O-oleoyl)-10-hydroxycaprinic acid, (O)-oleoyl-10-hydroxydecanoic acid]
stabilisation of meibomian lipid film [1, 7]: stabilise the films

SMILES: CCCCCCCC/C=C\CCCCCCCC(=O)OCCCCCCCCCCCCCCCC(=O)O [(O-oleoyl)-16-hydroxypalmitic acid]
hysteresis of pressure/area curve [2]: increase in hysteresis | surface pressure of film [2]: increases the surface pressure | film collapse during compression/expansion cycles (take-off position) [3]: do not collapse | surface activity of pure film ([4]; listed as (O-oleoyl)-w-hydroxypalmitic acid): as surface active as oleic acid films | surface activity of pure film ([4]; listed as (O-oleoyl)-ω-hydroxypalmitic acid): very surface active; also recorded: much more surface active | change of Π-A profile / take-off through repeated isocycles ([4]; FIG. 4): little change in its profile | surface area covered by pure film ([4]; compared with palmityl oleate or oleic acid): much larger surface area than either palmityl oleate or oleic acid | surface area per molecule on take-off [4]: 131 Å^2 per molecule | change of Πmax in subsequent isocycles [5]: small increase | Πmax in the first isocycle versus meibomian lipid films alone [5]: higher | stabilisation of meibomian lipid film [1, 7]: stabilise the films

film collapse during compression/expansion cycles (take-off position) [3]: do not collapse | stabilisation of meibomian lipid film [1]: stabilise the films
SMILES: CCCCCCCCCCCCCCCCCC(=O)OCCCCCCCCCCCCCCCC(=O)O [(O-stearyl)-16-hydroxypalmitic acid, (O)-stearyl-16-hydroxypalmitic acid]

change of maximum surface pressure (Πmax) with increasing isocycles ([4]; FIG. 4): decreases | change of Π-A profile / take-off through repeated isocycles ([4]; FIG. 4): decreases in take-off | change of Πmax in subsequent isocycles [5]: decreased | Πmax in the first isocycle versus meibomian lipid films alone [5]: higher
SMILES: CCCCCCCC/C=C\CCCCCCCC(=O)O [oleic acid, reference compound]
microscopic appearance of meibomian film mixed with lipid [6]: did not appear substantially different from pure meibomian lipid films

film collapse during compression/expansion cycles (take-off position) [3]: collapse | change of maximum surface pressure (Πmax) with increasing isocycles ([4]; FIG. 4): increase in maximum surface pressure | change of Π-A profile / take-off through repeated isocycles ([4]; FIG. 4): slow shift in the Π-A curve to the left | area per molecule at flattening of the Π-A curve ([4]; assuming the film is a monolayer up to this point, FIG. 4): about 60 Å^2 | surface area per molecule on take-off [4]: 82 Å^2 per molecule | change of Πmax in subsequent isocycles [5]: marked increase | Πmax in the first isocycle versus meibomian lipid films alone [5]: did not influence
SMILES: CCCCCCCC/C=C\CCCCCCCC(=O)OCCCCCCCCCCCCCCCC [palmityl oleate, reference compound]
microscopic appearance of meibomian film mixed with lipid [6]: did not appear substantially different from pure meibomian lipid films

film collapse during compression/expansion cycles (take-off position) [3]: collapse
SMILES: CCCCCCCCCCCCCCCCCC(=O)OCCCCCCCCCCCCCCCC [palmityl stearate wax ester, palmityl stearate]

film collapse during compression/expansion cycles (take-off position) [3]: collapse
SMILES: CC/C=C\C/C=C\C/C=C\CCCCCCCC(=O)OCCCCCCCCCCCCCCCCCC [steroyl linolenate wax ester, steroyl linolenate]
